Experimental findings from patent US8192719B2, “Methods and kits to diagnose growth hormone deficiency by oral administration of EP 1572 or EP 1573 compounds” (Aeterna Zentaris GmbH, priority 2006, dated 2012) are described below.

Molecules are shown by their SMILES. Like-named read-outs stand apart in the source and are kept apart here.

The nature of the data set: pharmacokinetic profile of EP 1572 after oral administration in healthy male subjects. The conditions noted are these: human, plasma EP 1572, oral, mean ± SEM; for AUC(0-t): read-out: AUC (0-300) (converted). The data set is classed as in vivo. How it is done:
After a provocative test with EP 1572, the pharmacokinetic profile of EP 1572 and the level of GH released in response to its oral administration were established in 36 healthy male subjects at various doses.
From the subject a blood sample was drawn at 30 and 15 minutes before the administration of EP 1572. A sample of blood was taken from the subject immediately before the aqueous formulation containing 0.5 mg/kg of EP 1572 was orally administered to the subject. Further blood samples were taken from the subject at 15, 30, 60, 90, 120, 150, 180, 210, 240, 270 and 300 minutes from administration and a portion of each sample processed according to the assay protocol outlined below. The level of GH present in each sample was determined by the assay method outlined below and the peak concentration (Cmax) for the subject determined. The remainder of the sample was used to determine the level of EP 1572 present in the systemic circulation (as outlined below).
The organic components in human plasma were extracted using a total of […] of an ethyl acetate/iso-propanol mixture (82.5% and 17.5%, respectively). […] Quantification was performed with EP 1573 as an internal standard (peak area ratio evaluation).
Further dosing studies were carried out wherein the subjects were administered doses of 0.005, 0.05, 0.25 and 0.125 mg/kg each, using the formulations described above.

The Cmax is the peak of the concentration-time curve. The term Tmax denotes the time at which the peak concentration occurs. In the case of `CC(C)(N)C(=O)N[C@H](Cc1c[nH]c2ccccc12)C(=O)N[C@H](Cc1c[nH]c2ccccc12)NC=O` [EP 1572, H-Aib-D-Trp-D-gTrp-CHO], the maximum concentration (Cmax) came to 0.86 ± 0.24 ng/mL (0.05 mg/kg), 2.33 ± 0.39 ng/mL (0.125 mg/kg), 3.92 ± 0.57 ng/mL (0.25 mg/kg) and 7.59 ± 0.83 ng/mL (0.5 mg/kg). The Tmax is 75 min (0.05 mg/kg), 62.5 min (0.125 mg/kg), 55 min (0.25 mg/kg) and 50 min (0.5 mg/kg). In addition, the AUC(0-t) runs as follows: (0.05 mg/kg) 1.74 ng·h/mL; (0.125 mg/kg) 5.35 ng·h/mL; (0.25 mg/kg) 8.67 ng·h/mL; (0.5 mg/kg) 16.1 ng·h/mL.
